Results reported in PMC11249646, “Small-Molecule Disruptors of the Interaction between Calcium- and Integrin-Binding Protein 1 and Integrin αIIbβ3 as Novel Antiplatelet Agents” (ACS Pharmacology & Translational Science, 2024).
Where two headings read alike, the source gives them in different places.

Assays:
[1] = molecular target: T1, GST-CIB1 : F-scrambled peptide (Homo sapiens, UniProt Q99828); assay: FP scrambled-peptide counter screen, 1536-well format; assay type: binding; details: for Curve Class (counterscreen) / COUNTERSCREEN Curve Class: qHTS curve class
T1 construct: made in house; host or cells: BL-21 plus RIL cells (E. coli)
T1 sequence (Q99828 1-191): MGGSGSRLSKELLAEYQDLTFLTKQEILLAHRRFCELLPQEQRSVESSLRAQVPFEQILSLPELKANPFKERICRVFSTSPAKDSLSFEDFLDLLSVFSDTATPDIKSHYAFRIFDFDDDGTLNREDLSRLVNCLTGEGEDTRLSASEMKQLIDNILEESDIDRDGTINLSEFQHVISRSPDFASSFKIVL

[2] = molecular target: T2, CIB1 and αIIb interaction (CIB1-GST : F-αIIb peptide) (Homo sapiens, UniProt Q99828); assay: FP assay, 1536-well qHTS format (primary and confirmatory screen); assay type: binding; details: for Curve Class (confirmatory screen) / CONFIRMATORY SCREEN Curve Class: qHTS curve class
T2 construct: made in house; host or cells: BL-21 plus RIL cells (E. coli)
T2 sequence (Q99828 1-191): T1 sequence (Q99828 1-191)

[3] = counterscreen, negative sign = inhibitory curve
[4] = counterscreen, read-out: IC50 [μM] (counterscreen)
[5] = confirmatory screen, negative sign = inhibitory curve
[6] = confirmatory screen, read-out: IC50 [μM] (confirmatory screen)
[7] = qHTS primary screen hits, Table S2, negative = inhibition
[8] = qHTS primary screen hits, Table S2, negative sign = inhibitory curve, several classes where COUNT > 1
[9] = qHTS primary screen hits, Table S2, read-out: IC50
[10] = qHTS FP screen hits, Table S2, negative = inhibition
[11] = qHTS FP screen hits, Table S2, read-out: IC50
[12] = qHTS primary screen hits, Table S2, negative sign = inhibitory curve
[13] = Table S3, counterscreen, YES/NO call
[14] = Table S3, counterscreen, a negative sign marks inhibitory curves
[15] = Table S3, counterscreen, negative = inhibition
[16] = Table S3, counterscreen, read-out: IC50 [μM] (counterscreen)
[17] = Table S3, confirmatory screen, a negative sign marks inhibitory curves
[18] = Table S3, confirmatory screen, negative = inhibition
[19] = scrambled-peptide counterscreen
[20] = scrambled-peptide counterscreen, YES/NO call
[21] = confirmatory screen, YES/NO call
[22] = confirmatory screen, negative = inhibition
[23] = confirmatory screen, read-out: CONFIRMATORY SCREEN IC50
[24] = qHTS FP screen hits, Table S2, one class per curve where COUNT > 1, negative sign = inhibitory curve

Compound | Efficacy (%) [2, 7] | Curve Class [2, 8] | IC50 [2, 9] | COUNTERSCREEN Efficacy (%) ([1]; counterscreen) | COUNTERSCREEN Curve Class ([1]; counterscreen) | CONFIRMATORY SCREEN Efficacy (%) ([2]; confirmatory screen) | CONFIRMATORY SCREEN Curve Class ([2]; confirmatory screen) | Efficacy (%) [2, 10] | IC50 [2, 11] | Curve Class (counterscreen) [1, 14] | Efficacy (%) (counterscreen) [1, 15] | Curve Class (confirmatory screen) [2, 17] | Efficacy (%) (confirmatory screen) [2, 18] | further results
CCN1CCN(c2cccc(Nc3nn4c(=O)c5ccccc5nc4s3)c2)CC1.Cl [NCGC00187806-01] | -24% | -2.4 | 35.5 µM |  |  |  |  |  |  |  |  |  |  | Efficacy (%) (counterscreen) ([1]; counterscreen): -58%; Curve Class (counterscreen) [1, 3]: -3; IC50 [1, 4]: 89.1 µM; Efficacy (%) (confirmatory screen) ([2]; confirmatory screen): -38%; Confirm? (confirmatory screen) ([2]; confirmatory screen, YES/NO): YES; Curve Class (confirmatory screen) [2, 5]: -2.4; IC50 [2, 6]: 44.7 µM
COc1ccc2c(=O)n3nc(Nc4cccc(N5CCN(C)CC5)c4)sc3nc2c1.Cl [NCGC00187813-01] | -22% | -1.4 | 17.8 µM | -16% | 4 | -43% | 4 |  |  |  |  |  |  | 
CN1CCN(c2cccc(Nc3nn4c(=O)c5ccc(Br)cc5nc4s3)c2)CC1.Cl [NCGC00187814-01] |  |  |  |  |  |  |  | -28% | 39.8 µM |  |  |  |  | Efficacy (%) (counterscreen) ([1]; counterscreen): -54%; Curve Class (counterscreen) [1, 3]: -2.2; IC50 [1, 4]: 50.1 µM; Efficacy (%) (confirmatory screen) ([2]; confirmatory screen): -63%; Confirm? (confirmatory screen) ([2]; confirmatory screen, YES/NO): YES; Curve Class (confirmatory screen) [2, 5]: -2.4; IC50 [2, 6]: 50.1 µM
O=C(O)C(F)(F)F.O=C1CCC2=C1C1(CCCC1)N=C(Nc1nc3ccccc3o1)N2 [NCGC00188036-01] | -24% | -1.4 | 2.8 µM | -10% | 4 | -27% | 4 |  |  |  |  |  |  | 
CC1CCC2(C1)N=C(Nc1nc3ccccc3o1)NC1=C2C(=O)CCC1.O=C(O)C(F)(F)F (stereo not drawn) [NCGC00188039-01] | -25% |  | 31.6 µM | -20% | 4 | -33% | 4 |  |  |  |  |  |  | Curve Class [2, 12]: -2.4
CC(C)c1nc(Nc2nc3ccccc3o2)nc2c1CCCC2.O=C(O)C(F)(F)F [NCGC00188040-01] | -19% |  | 6.3 µM |  |  |  |  |  |  | -2.4 | -36% | 4 | -29% | Confirm? (counterscreen) [1, 13]: YES; IC50 [1, 16]: 22.4 µM; Curve Class [2, 12]: -1.4
CSc1cc2c(s1)c1cnn(Cc3cccc(N)c3)c(=O)c1n2C.O=C(O)C(F)(F)F [NCGC00188341-01] | -65% | -1.2 | 20 µM |  |  |  |  |  |  |  |  |  |  | Efficacy (%) (counterscreen) ([1]; counterscreen): 0%; Confirm? (counterscreen) ([1]; counterscreen, YES/NO): YES; Curve Class (counterscreen) [1, 3]: 4; Efficacy (%) (confirmatory screen) ([2]; confirmatory screen): -133%; Confirm? (confirmatory screen) ([2]; confirmatory screen, YES/NO): YES; Curve Class (confirmatory screen) [2, 5]: -2.1; IC50 [2, 6]: 39.8 µM
Cc1ccc(C(=O)NC(c2ccco2)c2cc(Cl)c3cccnc3c2O)cc1 (stereo not drawn) [NCGC00188372-01] | -23% |  | 31.6 µM |  |  |  |  |  |  |  | 42% | 4 | -11% | IC50 [1, 16]: 89.1 µM; Curve Class [2, 12]: -1.4
O=C(NC(c1ccco1)c1cc(Cl)c2cccnc2c1O)c1cccs1.O=C(O)C(F)(F)F (stereo not drawn) [NCGC00188375-01] | -35% | -1.2 | 25.1 µM |  |  |  |  |  |  |  | 81% | 4 | 0% | IC50 [1, 16]: 50.1 µM
O=C(Cc1ccccc1)NC(c1ccco1)c1cc(Cl)c2cccnc2c1O.O=C(O)C(F)(F)F (stereo not drawn) [NCGC00188377-01] | -35% | -2.2 | 39.8 µM |  |  |  |  |  |  | 3 | 61% | 4 | -25% | IC50 [1, 16]: 89.1 µM
CS(=O)(=O)c1ccc(C(=O)OCC(=O)N2CCN(CCC3CCCCC3)CC2)cc1[N+](=O)[O-].O=C(O)C(F)(F)F [NCGC00188531-01] | -26% | -1.4 | 0.9 µM |  |  |  |  |  |  | -2.2 | -50% | -3 | -49% | IC50 [1, 16]: 39.8 µM; Confirm? (confirmatory screen) ([2]; Table S3, confirmatory screen, YES/NO call): YES; IC50 ([2]; Table S3, confirmatory screen, read-out: IC50 [μM] (confirmatory screen)): 39.8 µM
CCCC1CCN(C(=O)COC(=O)c2ccc(S(C)(=O)=O)c([N+](=O)[O-])c2)CC1 [NCGC00188533-01] |  |  |  |  |  |  |  | -25% | 1.3 µM |  |  |  |  | COUNTERSCREEN Efficacy (%) [1, 19]: -28%; COUNTERSCREEN Confirm? [1, 20]: YES; COUNTERSCREEN Curve Class [1, 19]: 4; CONFIRMATORY SCREEN Confirm? [2, 21]: YES; CONFIRMATORY SCREEN Curve Class [2, 5]: -1.4; CONFIRMATORY SCREEN Efficacy (%) [2, 22]: -28%; IC50 [2, 23]: 2.5 µM
CC(OC(=O)c1ccc(S(C)(=O)=O)c([N+](=O)[O-])c1)C(=O)NC1C2CC3CC(C2)CC1C3 (stereo not drawn) [NCGC00188535-01] | -30% | -1.2 | 1.8 µM | -20% | 4 | -32% | 4 |  |  |  |  |  |  | 
CCC(OC(=O)c1ccc(S(C)(=O)=O)c([N+](=O)[O-])c1)C(=O)NC1C2CC3CC(C2)CC1C3 (stereo not drawn) [NCGC00188536-01] | -27% | -1.4 | 1.4 µM |  |  |  |  |  |  |  |  |  |  | COUNTERSCREEN Efficacy (%) [1, 19]: -50%; COUNTERSCREEN Confirm? [1, 20]: YES; COUNTERSCREEN Curve Class [1, 19]: -2.2; IC50 ([1]; scrambled-peptide counterscreen, read-out: COUNTERSCREEN IC50): 31.6 µM; CONFIRMATORY SCREEN Confirm? [2, 21]: YES; CONFIRMATORY SCREEN Curve Class [2, 5]: -1.4; CONFIRMATORY SCREEN Efficacy (%) [2, 22]: -52%; IC50 [2, 23]: 2.5 µM
CS(=O)(=O)c1ccc(C(=O)OCC(=O)N2CCC(Cc3ccccc3)CC2)cc1[N+](=O)[O-] [NCGC00188541-01] |  |  |  | -22% | 4 | -18% | 4 | -25% | 0.7 µM |  |  |  |  | 
O=C(O)C(F)(F)F.O=C1CCCC2=C1C1(CCCOC1)N=C(Nc1nc3ccccc3o1)N2 (stereo not drawn) [NCGC00188575-01] | -34% | -2.2 | 28.2 µM | -21% | 4 | -18% | 4 |  |  |  |  |  |  | 
Cn1c(NC2=NC3(CCCC3)C3=C(CCCC3=O)N2)nc2ccccc21.O=C(O)C(F)(F)F [NCGC00188583-01] |  |  |  |  |  |  |  | -27% | 7.1 µM |  |  |  |  | Efficacy (%) (counterscreen) ([1]; counterscreen): -13%; Confirm? (counterscreen) ([1]; counterscreen, YES/NO): YES; Curve Class (counterscreen) [1, 3]: 4; Efficacy (%) (confirmatory screen) ([2]; confirmatory screen): -31%; Confirm? (confirmatory screen) ([2]; confirmatory screen, YES/NO): YES; Curve Class (confirmatory screen) [2, 5]: -2.4; IC50 [2, 6]: 89.1 µM
O=C(O)C(F)(F)F.O=C1CCCC2=C1C1(CCOCC1)N=C(Nc1nc3ccccc3o1)N2 [NCGC00188584-01] |  |  |  | -16% | 4 | 0% | 4 | -26% | 15.8 µM |  |  |  |  | 
O=C(O)c1ccccc1SC1=NS(=O)(=O)c2ccccc21 [NCGC00188636-02] |  |  |  |  |  |  |  | -66% | 44.7 µM | 4 | 0% | 4 | -29% | Curve Class [2, 24]: -2.2
O=C(O)C(F)(F)F.Oc1cccc2cc(N3CCCC3)cnc12 [NCGC00188744-01] |  |  |  |  |  |  |  | -48% | 28.2 µM | -1.4 | -34% | 4 | -14% | Confirm? (counterscreen) [1, 13]: YES; IC50 [1, 16]: 17.8 µM; Curve Class [2, 24]: -2.2
CN(C)c1cnc2c(O)cccc2c1.O=C(O)C(F)(F)F [NCGC00188745-01] | -53% | -2.2 | 44.7 µM | -32% | 4 | -19% | 4 |  |  |  |  |  |  | 
O=C(O)C(F)(F)F.Oc1cccc2cc(C3CC3)cnc12 [NCGC00188747-01] |  |  |  |  |  |  |  | -36% | 31.6 µM | 4 | -25% | 4 | -17% | Curve Class [2, 24]: -1.2
O=C(O)C(F)(F)F.O=C1CCCC2=C1C(c1ccncc1)N=C(Nc1nc3ccccc3o1)N2 (stereo not drawn) [NCGC00188839-01] | -44% | -2.2 | 28.2 µM |  |  |  |  |  |  | 4 | -13% | 4 | -25% | 
